Converted amounts (≈) assume the structure as drawn.
Assays:
[1] = test system: Acinetobacter baumannii (A. baumannii) BAA747; experiment: Antibacterial activity, MIC (Table 4); format: cell-based; conditions: A. baumannii BAA747, read-out: MIC, BAA747
In short: (§1)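 Broth microdilution; MIC (μg/mL) = lowest concentration with no macroscopically visible growth. Resistant strains: multi-drug resistant clinical isolates.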

[2] = test system: Klebsiella pneumoniae (K. pneumoniae) 35657; experiment: Antibacterial activity, MIC (Table 4); format: cell-based; conditions: K. pneumoniae 35657, read-out: MIC, 35657
In short: as §1

E. coli 25922 = experiment: Antibacterial activity, microbroth dilution MIC (Table 1); format: cell-based, Escherichia coli; conditions: Escherichia coli; microbroth dilution; control Gram-negative E. coli 25922 strain; read-out: MIC, 25922
In short: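 Using broth microdilution, MIC endpoints (μg/mL) mark where visible growth no longer appears; the panel spans sensitive and control Gram-negative strains plus a Gram-positive strain.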

[3] = test system: Pseudomonas aeruginosa (P. aeruginosa) 27853; experiment: Antibacterial activity, MIC (Table 5); format: cell-based; conditions: P. aeruginosa 27853, read-out: MIC, 27853
In short: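 Microbroth dilution; MIC (μg/mL) = lowest concentration with no macroscopically visible growth.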

[4] = test system: Staphylococcus aureus (S. aureus) 29213; experiment: Antibacterial activity, microbroth dilution MIC (Table 1); format: cell-based; conditions: microbroth dilution, Gram-positive S. aureus 29213, read-out: MIC, 29213
In short: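 MIC (μg/mL) is taken as the lowest concentration with no macroscopically visible growth. Strains tested by microbroth dilution: Gram-positive S. aureus 29213, control Gram-negative E. coli 25922, and super-sensitive E. coli BAS849.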

[5] = test system: Escherichia coli (E. coli) BAS849; experiment: as above; format: cell-based; conditions: microbroth dilution, super sensitive Gram-negative E. coli BAS849, read-out: MIC, BAS849
In short: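 Read-out: visual absence of growth. The lowest concentration meeting this gives the MIC, expressed in μg/mL, with microbroth dilution as the method.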

E. coli ELZ4251 = experiment: Antibacterial activity, MIC, multi-drug resistant clinical isolate (Table 3); format: cell-based; conditions: Escherichia coli
In short: (§2)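 MIC (μg/mL) read as lowest concentration with no macroscopically visible growth, determined by microbroth dilution.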

E. coli ELZ4000 = experiment: as above; format: cell-based; conditions: Escherichia coli, ELZ4000, read-out: MIC ELZ4000
In short: as §2

E. coli LZ3111 = experiment: Antibacterial activity, MIC, quinolone resistant strain (Table 2); format: cell-based; conditions: Escherichia coli, LZ3111, read-out: MIC LZ3111
In short: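 Broth microdilution. Read-out: MIC in μg/mL, taken as lowest concentration with no macroscopically visible growth.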

K. pneumoniae MXX1232 = experiment: Antibacterial activity, MIC, resistant strain (Table 4); format: cell-based; conditions: Klebsiella pneumoniae, MXX1232; resistant K. pneumoniae MMX1232, multi-drug resistant clinical isolate; read-out: MIC, MMX1232
In short: as §1

A. baumannii MXX2240 = experiment: as above; format: cell-based; conditions: Acinetobacter baumannii, MXX2240; resistant A. baumannii MMX2240, multi-drug resistant clinical isolate; read-out: MIC, MMX2240
In short: as §1

[6] = test system: Neisseria meningitidis (N. meningitidis) 13090; experiment: Antibacterial activity, MIC (Table 8); format: cell-based
From the text: (§3) The antibacterial activity from a microbroth dilution method may be presented as the minimum inhibitory concentration (MIC in μg/mL). The MIC value is the lowest concentration of drug which prevents macroscopically visible growth under test conditions.
(§4) Antibacterial activity of test compounds against the Gram-negative bacteria Haemophilus influenzae (H. influenzae) 49247 is shown in Table 6, Moraxella catarrhalis (M. catarrhalis) 25238 is shown in Table 7 and Neisseria meningitidis (N. meningitidis) 13090 is shown in Table 8.

[7] = test system: Haemophilus influenzae (H. influenzae) 49247; experiment: Antibacterial activity, MIC (Table 6); format: cell-based
From the text: as §3, §4

[8] = test system: Moraxella catarrhalis (M. catarrhalis) 25238; experiment: Antibacterial activity, MIC (Table 7); format: cell-based
From the text: as §3, §4

| SMILES | MIC [1] | MIC [2] | MIC (E. coli 25922) | MIC [3] | MIC [4] | MIC [5] | MIC (E. coli ELZ4251) | MIC (E. coli ELZ4000) | MIC (E. coli LZ3111) | MIC (K. pneumoniae MXX1232) | MIC (A. baumannii MXX2240) | MIC [6] | MIC [7] | MIC [8] |
| --- | --- | --- | --- | --- | --- | --- | --- | --- | --- | --- | --- | --- | --- | --- |
| CCc1cc(C(=O)O)c(=O)[nH]c1-c1ccc2c(c1)CCN2C [Cpd 5, 5-ethyl-6-(1-methylindolin-5-yl)-2-oxo-1,2-dihydropyridine-3-carboxylic acid] | 1 to 3.5 µg/mL (≈ 3.35 to 11.7 µM) | 3.5 to 12.5 µg/mL (≈ 11.7 to 41.9 µM) | 3.5 to 12.5 µg/mL (≈ 11.7 to 41.9 µM) | 12.5 to 150 µg/mL (≈ 41.9 to 503 µM) | 12.5 to 150 µg/mL (≈ 41.9 to 503 µM) | < 1 µg/mL | 12.5 to 150 µg/mL (≈ 41.9 to 503 µM) | 12.5 to 150 µg/mL (≈ 41.9 to 503 µM) | 12.5 to 150 µg/mL (≈ 41.9 to 503 µM) | 12.5 to 150 µg/mL (≈ 41.9 to 503 µM) | 12.5 to 150 µg/mL (≈ 41.9 to 503 µM) | < 1 µg/mL | < 1 µg/mL |  |
| CCc1c(-c2ccc3c(c2)CCCN3C)[nH]c(=O)c(C(=O)O)c1O [Cpd 2, 5-ethyl-4-hydroxy-6-(1-methyl-1,2,3,4-tetrahydroquinolin-6-yl)-2-oxo-1,2-dihydropyridine-3-carboxylic acid] |  |  | 12.5 to 150 µg/mL (≈ 38.1 to 457 µM) |  | 3.5 to 12.5 µg/mL (≈ 10.7 to 38.1 µM) | < 1 µg/mL |  |  |  |  |  | < 1 µg/mL | < 1 µg/mL |  |
| CCc1c(-c2ccc3c(c2)OCCN3C)[nH]c(=O)c(C(=O)O)c1O [Cpd 4, 5-ethyl-4-hydroxy-6-(4-methyl-3,4-dihydro-2H-benzo[b][1,4]oxazin-7-yl)-2-oxo-1,2-dihydropyridine-3-carboxylic acid] | 1 to 3.5 µg/mL (≈ 3.03 to 10.6 µM) | 3.5 to 12.5 µg/mL (≈ 10.6 to 37.8 µM) | 3.5 to 12.5 µg/mL (≈ 10.6 to 37.8 µM) | 12.5 to 150 µg/mL (≈ 37.8 to 454 µM) | 3.5 to 12.5 µg/mL (≈ 10.6 to 37.8 µM) | < 1 µg/mL | 3.5 to 12.5 µg/mL (≈ 10.6 to 37.8 µM) | 3.5 to 12.5 µg/mL (≈ 10.6 to 37.8 µM) | 3.5 to 12.5 µg/mL (≈ 10.6 to 37.8 µM) | 12.5 to 150 µg/mL (≈ 37.8 to 454 µM) | 1 to 3.5 µg/mL (≈ 3.03 to 10.6 µM) |  | < 1 µg/mL |  |
| CC(C)c1cc(C(=O)O)c(=O)[nH]c1-c1ccc2c(ccn2C)c1 [Cpd 33, 5-isopropyl-6-(1-methyl-1H-indol-5-yl)-2-oxo-1,2-dihydropyridine-3-carboxylic acid] |  |  | 3.5 to 12.5 µg/mL (≈ 11.3 to 40.3 µM) |  | 12.5 to 150 µg/mL (≈ 40.3 to 483 µM) | < 1 µg/mL | 12.5 to 150 µg/mL (≈ 40.3 to 483 µM) | 12.5 to 150 µg/mL (≈ 40.3 to 483 µM) | 12.5 to 150 µg/mL (≈ 40.3 to 483 µM) |  |  | < 1 µg/mL | < 1 µg/mL |  |
| CCc1c(-c2ccc3c(c2)CCN3C)[nH]c(=O)c(C(=O)O)c1O [Cpd 6, 5-ethyl-4-hydroxy-6-(1-methylindolin-5-yl)-2-oxo-1,2-dihydropyridine-3-carboxylic acid] | 1 to 3.5 µg/mL (≈ 3.18 to 11.1 µM) | 12.5 to 150 µg/mL (≈ 39.8 to 477 µM) | 3.5 to 12.5 µg/mL (≈ 11.1 to 39.8 µM) | 12.5 to 150 µg/mL (≈ 39.8 to 477 µM) | 3.5 to 12.5 µg/mL (≈ 11.1 to 39.8 µM) | < 1 µg/mL | 12.5 to 150 µg/mL (≈ 39.8 to 477 µM) | 12.5 to 150 µg/mL (≈ 39.8 to 477 µM) | 12.5 to 150 µg/mL (≈ 39.8 to 477 µM) | 12.5 to 150 µg/mL (≈ 39.8 to 477 µM) | 1 to 3.5 µg/mL (≈ 3.18 to 11.1 µM) | < 1 µg/mL | < 1 µg/mL |  |
| C=CCNCc1cc2cc(-c3[nH]c(=O)c(C(=O)O)c(O)c3CC)ccc2n1C.Cl [Cpd 243, 6-(2-((allylamino)methyl)-1-methyl-1H-indol-5-yl)-5-ethyl-4-hydroxy-2-oxo-1,2-dihydropyridine-3-carboxylic acid hydrochloride] | < 1 µg/mL | < 1 µg/mL | < 1 µg/mL | 3.5 to 12.5 µg/mL | 3.5 to 12.5 µg/mL | < 1 µg/mL | 1 to 3.5 µg/mL | 3.5 to 12.5 µg/mL | 1 to 3.5 µg/mL | 12.5 to 150 µg/mL |  | < 1 µg/mL | < 1 µg/mL | < 1 µg/mL |
| CCc1c(-c2ccc3c(c2)cc(C)n3C)[nH]c(=O)c(C(=O)O)c1O [Cpd 38, 6-(1,2-dimethyl-1H-indol-5-yl)-5-ethyl-4-hydroxy-2-oxo-1,2-dihydropyridine-3-carboxylic acid] |  |  | 1 to 3.5 µg/mL (≈ 3.06 to 10.7 µM) |  | 1 to 3.5 µg/mL (≈ 3.06 to 10.7 µM) | < 1 µg/mL | 12.5 to 150 µg/mL (≈ 38.3 to 460 µM) | 12.5 to 150 µg/mL (≈ 38.3 to 460 µM) | 12.5 to 150 µg/mL (≈ 38.3 to 460 µM) |  |  | < 1 µg/mL | < 1 µg/mL |  |
| CCc1c(-c2ccc3c(c2)cc(CO)n3C)[nH]c(=O)c(C(=O)O)c1O [Cpd 40, 5-ethyl-4-hydroxy-6-(2-(hydroxymethyl)-1-methyl-1H-indol-5-yl)-2-oxo-1,2-dihydropyridine-3-carboxylic acid] | 1 to 3.5 µg/mL (≈ 2.92 to 10.2 µM) |  | 1 to 3.5 µg/mL (≈ 2.92 to 10.2 µM) | 3.5 to 12.5 µg/mL (≈ 10.2 to 36.5 µM) | 1 to 3.5 µg/mL (≈ 2.92 to 10.2 µM) | < 1 µg/mL | 3.5 to 12.5 µg/mL (≈ 10.2 to 36.5 µM) | 12.5 to 150 µg/mL (≈ 36.5 to 438 µM) | 3.5 to 12.5 µg/mL (≈ 10.2 to 36.5 µM) | 12.5 to 150 µg/mL (≈ 36.5 to 438 µM) | 3.5 to 12.5 µg/mL (≈ 10.2 to 36.5 µM) | < 1 µg/mL | < 1 µg/mL |  |

Reference: patent publication US9409905B2, “Antibacterial compounds and methods for use” (PTC THERAPEUTICS, INC., priority 2011, dated 2016)
